Legend:
HIV 115-mer = assay: Post-amplification sterilization: isopsoralen plus irradiation, reamplification of carryover; format: biochemical; settings: for sterilization sensitivity (molecules of carryover sterilized): 115-mer PCR product; for amplification of carryover, not light-treated: no irradiation
From the text: For the purposes of this determination, the steps of the following experiment include (see Figure 40): a) preparing template, b) providing template, c) providing PCR reagents, d) providing polymerase, e) mixing PCR reagents, template, and polymerase to initiate PCR, f) cycling to provide PCR product, g) carrying over of PCR product into new tubes, h) providing isopsoralen, i) adding isopsoralen to the carryover, j) irradiating, k) addition of new PCR reagents, and l) subsequent PCR. Steps a), b) , c) , d), e), and f). PCR product was provided as described earlier. Step g) carrying over of PCR product. Aliquots of PCR product were added into new reaction tubes at 10^6 copies per tube. Step h) Providing Isopsoralen. AMDMIP was synthesized as described and diluted. Step i) Addition of Isopsoralen. AMDMIP (100 µg/ml, approximately 10^-4 M) was added reaction vessels containing carryover. Step j) Irradiation. Irradiation was performed on the PTI device to avoid photoproduct. Three of the new reaction tubes were irradiated while the others were left unirradiated as controls. Irradiation was for 15 minutes at RT as above. Step k) PCR Reagents and Taq Polymerase Were Added to Appropriate Concentrations. The final volume was increased two fold such that AMDMIP photoproducts were at 50 µg/ml. Step l) Subsequent PCR. Amplification was performed in closed reaction vessels using primer pair SK-38/39 for 20, 25 or 30 cycles, using the temperature profile for cycling described above in the presence of α-^32P-dCTP.
For the purposes of this determination, the steps of the following experiment include (see Figure 42): a) preparing template, b) providing template, c) providing isopsoralen, d) providing PCR reagents, e) providing polymerase, f) mixing isopsoralen, PCR reagents, template, and polymerase to initiate PCR, g) cycling to provide PCR product, h) irradiating, i) carrying over of PCR product into new tubes at specific copy numbers, and j) amplifying in a subsequent PCR. Step a): Template preparation. HIV 115-mer was used as template. Step b) Providing Template. For the reaction, template (equivalent to approximately 10^7 copies) in buffer was provided for the reaction vessel. Step c) Providing Isopsoralen. AMDMIP (400 µg/ml) was provided as the isopsoralen. This is a higher concentration of AMDMIP than used in the previous example. Steps d), e), f) and g). PCR reagents and polymerase were provided, mixed and cycled as described above. This time, however, isopsoralen is part of the pre-amplification mixture. Step h) Irradiation. Irradiation was performed on the CE-III device for 15 minutes at 25°C. Step i) Carrying over of PCR product. Aliquots of PCR product were added into six new reaction tubes - two tubes for each dilution. Dilutions to yield 10^7, 10^5 and 10^3 copies were made. (Note that the dilutions were made from a concentration of approximately […]; thus, the dilutions produce a concentration of photoproduct that is far too low to consider photoproduct sterilization.) Step j) Subsequent PCR. New PCR reagents and polymerase were provided and mixed. Amplification was performed in closed reaction vessels using primer pair SK-38/39 for 30 cycles, using the temperature profile for cycling described above in the presence of α-^32P-dCTP.
The two PCR targets used in these experiments were a 115-mer (SK-38/SK-39 HIV system) and a 500-mer. The 500-mer target is obtained from a PCR amplification of a lambda plasmid with primers PCR 01/02. This system is provided by Cetus/Perkin Elmer as a control in their commercial kits of PCR reagents (Catalogue No. N801-0055). For both of these systems equivalent copy numbers of each target were prepared in the following manner: An initial 30 cycle PCR reaction was carried out for each system with the appropriate primers and targets. Aliquots (approximately 10^5-10^6 target copies) of each of these reactions were transferred to a second set of PCR reactions. […]

500-mer = assay: as above; format: biochemical, lambda; settings: CE-III 15 minutes, 500-mer PCR product, 30 cycles
Experimental: The two PCR targets used in these experiments were a 115-mer (SK-38/SK-39 HIV system) and a 500-mer. The 500-mer target is obtained from a PCR amplification of a lambda plasmid with primers PCR 01/02. This system is provided by Cetus/Perkin Elmer as a control in their commercial kits of PCR reagents (Catalogue No. N801-0055). For both of these systems equivalent copy numbers of each target were prepared in the following manner: An initial 30 cycle PCR reaction was carried out for each system with the appropriate primers and targets. Aliquots (approximately 10^5-10^6 target copies) of each of these reactions were transferred to a second set of PCR reactions. These second sets of PCR amplifications were carried out in the presence of α-^32P-dCTP, again for 30 cycles. Aliquots of these reactions were removed and counted by liquid scintillation counting. With these numbers, the specific activity of the α-32P-dCTP, and the sequence of each of the PCR product oligonucleotides (115-mer and 500-mer), the concentrations of each of the two PCR product oligonucleotides in the second set of PCR reaction tubes was determined. Both the 115-mer and the 500-mer concentrations were then adjusted to exactly 1 x 10^-8 M by the addition of additional Taq buffer. These stocks of equivalent copy number of PCR products were then used for further investigation. Each of the stock solutions then was subdivided into four reaction tubes. The reaction tubes were adjusted to contain the following: Tube 1, 100 µg/ml AMIP; Tube 2, 400 µg/ml AMIP; Tube 3, 100 µg/ml AMDMIP; and Tube 4, 400 µg/ml AMDMIP. Each of these samples were again split into two portions, one part being irradiated for 15 minutes at room temperature with the CE-III device and the other part kept in the dark. Serial dilutions of the irradiated and the unirradiated targets were then carried out on these samples for 30 cycles in the presence of α-32P-CTP. Aliquots of these samples were analyzed on denaturing polyacrylamide gels. The PCR product bands were visualized by autoradiography, cut, and counted in a liquid scintillation counter.

[1] = 100 µg/ml, CE-III 15 minutes, 30 cycles
[2] = 400 µg/ml, CE-III 15 minutes, 30 cycles

Row | Substance | sterilization sensitivity (molecules of carryover sterilized) (HIV 115-mer; [1]) | sterilization sensitivity (molecules of carryover sterilized) (HIV 115-mer; [2]) | sterilization sensitivity (molecules of carryover sterilized) (500-mer; 100 µg/ml) | sterilization sensitivity (molecules of carryover sterilized) (500-mer; 400 µg/ml) | sterilization of 115-mer PCR product compared with AMIP (HIV 115-mer; [1]) | sterilization of carryover (HIV 115-mer; AMDMIP 100 µg/ml added after amplification, PTI 15 minutes, 10^6 copies, thirty cycles) | sterilization of carryover (HIV 115-mer; AMDMIP 100 µg/ml added after amplification, PTI 15 minutes, 10^6 copies, twenty cycles) | sterilization of carryover (HIV 115-mer; AMDMIP 100 µg/ml added after amplification, PTI 15 minutes, 10^6 copies, twenty-five cycles, reduced relative to controls) | amplification of carryover, not light-treated (HIV 115-mer; AMDMIP 100 µg/ml, 20, 25, 30 cycles) | sterilization of carryover (HIV 115-mer; AMDMIP 400 µg/ml present during amplification, CE-III 15 minutes at 25°C, 10^7, 10^5, 10^3 copies, 30 cycles) | amplification of carryover, not light-treated (HIV 115-mer; AMDMIP 400 µg/ml present during first amplification, 30 cycles) | target molecules left capable of being replicated by PCR (HIV 115-mer; inferred from 20 cycles with 100 CPM threshold and Table 6) | target molecules that retained replicating capabilities (HIV 115-mer; inferred from 25 cycles and Table 6)
1 | 5-Aminomethylisopsoralen [AMIP] | about 10,000 molecules of carryover | about 10^6 carryover molecules | more effectively sterilized than the 115-mer PCR product | ≥ 6 x 10^9 molecules of carryover |  |  |  |  |  |  |  |  | 
2 | 4'-Aminomethyl-4,5'-dimethylisopsoralen [AMDMIP] |  | ≥ 6 x 10^9 carryover molecules | ≥ 6 x 10^9 carryover molecules | no signal in the irradiated dilution series | better sterilization agent | no significant sterilization is observed | sterilization appears to be complete | PCR product is visible | show amplification | complete, post-amplification sterilization | show amplification | less than 10^4 target molecules | at least 10^3 target molecules

From patent EP0497921B1, “METHOD FOR INHIBITING ENZYMATIC SYNTHESIS OF NUCLEIC ACIDS USING ISOPSORALENS” (ISAACS, Stephen T., priority 1989, dated 1991)
